These results are taken from patent US8927500B2, “Peptidomimetic macrocycles” (Aileron Therapeutics, Inc., priority 2012, dated 2015).

Like-named read-outs stand apart in the source and are kept apart here.

One assay concerns the target MDM2 (Homo sapiens, UniProt Q00987). Description: Competitive fluorescence polarization assay for MDM2. In kind it is binding. The following applies: competitive FP assay, MDM2.
In the next assay the target is T1, MDMX (Homo sapiens, UniProt O15151).
T1 sequence (O15151 1-125): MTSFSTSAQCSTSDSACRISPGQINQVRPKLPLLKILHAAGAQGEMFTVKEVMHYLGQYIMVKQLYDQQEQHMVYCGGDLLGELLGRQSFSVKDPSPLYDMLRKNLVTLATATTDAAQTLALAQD
Kind of assay: Competitive fluorescence polarization assay for MDMX. Format: binding. The note with it: competitive FP assay. A general note: Fluorescence polarisation rises when a labelled molecule tumbles more slowly, as on binding a larger partner.

Chain of MDM2 (Q00987 1-125): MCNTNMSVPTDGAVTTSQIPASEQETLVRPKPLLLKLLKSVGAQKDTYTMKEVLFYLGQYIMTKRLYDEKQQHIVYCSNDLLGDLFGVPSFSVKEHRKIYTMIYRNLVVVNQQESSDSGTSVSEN

As a reminder, the IC50 is the midpoint of a concentration-inhibition curve. A word on the Ki: it is a dissociation constant, usually derived from enzyme kinetics or from competition with a known ligand. For the compound `CCCC[C@H](NC(=O)[C@H](C)NC(=O)[C@H](C)NC(=O)[C@]1(C)CCCC=CCCCCCC[C@@](C)(NC(=O)[C@H](Cc2ccccc2)NC(=O)[C@@H](NC(=O)[C@H](CC(C)C)NC(C)=O)[C@@H](C)O)C(=O)N[C@@H](C)C(=O)N[C@@H](Cc2ccc(O)cc2)C(=O)N[C@@H](Cc2c[nH]c3ccccc23)C(=O)N[C@@H](C)C(=O)N[C@@H](CCC(N)=O)C(=O)N[C@@H](CC(C)C)C(=O)N1)C(=O)N[C@@H](C)C(=O)NC(C)(C)C(N)=O` (single isomer, unassigned) [compound 404], the IC50 at MDM2 (read-out: IC50 (MDM2)) and at MDMX (read-out: IC50 (MDMX)) was 10 to 100 nM throughout. For the same compound, the Ki on MDM2 (read-out: Ki (MDM2)) and on MDMX (read-out: Ki (MDMX)) was below 10 nM in each case.

As to `CCCC[C@H](NC(=O)[C@H](C)NC(=O)[C@H](C)NC(=O)[C@]1(C)CCCC=CCCCCCC[C@@](C)(NC(=O)[C@H](Cc2ccccc2)NC(=O)[C@@H](NC(=O)[C@H](CC(C)C)NC(C)=O)[C@@H](C)O)C(=O)N[C@@H](C)C(=O)N[C@@H](Cc2ccc(O)cc2)C(=O)N[C@@H](Cc2c[nH]c3ccccc23)C(=O)N[C@@H](C)C(=O)N[C@@H](CCC(N)=O)C(=O)N[C@@H](CC(C)C)C(=O)N1)C(=O)N[C@@H](C)C(=O)N[C@H](C)C(N)=O` (single isomer, unassigned) [compound 408], the 50% inhibitory concentration (IC50) on MDM2 (read-out: IC50 (MDM2)) and on MDMX (read-out: IC50 (MDMX)) was 10 to 100 nM each time. Also, the figures for the inhibition constant (Ki) on MDM2 (read-out: Ki (MDM2)) and at MDMX (read-out: Ki (MDMX)) were below 10 nM and 10 to 100 nM, respectively.

With `CCCC[C@H](NC(=O)[C@H](C)NC(=O)[C@H](C)NC(=O)[C@]1(C)CCCC=CCCCCCC[C@@](C)(NC(=O)[C@H](Cc2ccccc2)NC(=O)[C@@H](NC(=O)[C@H](CC(C)C)NC(C)=O)[C@@H](C)O)C(=O)N[C@@H](C)C(=O)N[C@@H](Cc2ccc(O)cc2)C(=O)N[C@@H](Cc2c[nH]c3ccccc23)C(=O)N[C@@H](C)C(=O)N[C@@H](CCC(N)=O)C(=O)N[C@@H](CC(C)C)C(=O)N1)C(=O)N[C@@H](C)C(=O)N(C)CC(N)=O` (single isomer, unassigned) [compound 410], the IC50 on MDM2 (read-out: IC50 (MDM2)) and on MDMX (read-out: IC50 (MDMX)) was below 10 nM throughout. Further, the Ki on MDM2 (read-out: Ki (MDM2)) and at MDMX (read-out: Ki (MDMX)) was below 10 nM each time.

With `CCCC[C@H](NC(=O)[C@H](C)NC(=O)[C@H](C)NC(=O)[C@]1(C)CCCC=CCCCCCC[C@@](C)(NC(=O)[C@H](Cc2ccccc2)NC(=O)[C@@H](NC(=O)[C@H](CC(C)C)NC(C)=O)[C@@H](C)O)C(=O)N[C@@H](C)C(=O)N[C@@H](Cc2ccc(O)cc2)C(=O)N[C@@H](Cc2c[nH]c3ccccc23)C(=O)N[C@@H](C)C(=O)N[C@@H](CCC(N)=O)C(=O)N[C@@H](CC(C)C)C(=O)N1)C(=O)N[C@@H](C)C(=O)O` (single isomer, unassigned) [compound 421], the IC50 at MDM2 (read-out: IC50 (MDM2)) and on MDMX (read-out: IC50 (MDMX)) was below 10 nM in each case. Also, the Ki at MDM2 (read-out: Ki (MDM2)) and on MDMX (read-out: Ki (MDMX)) was below 10 nM in each case.

For `CCCC[C@H](NC(=O)[C@H](C)NC(=O)[C@H](C)NC(=O)[C@]1(C)CCCC=CCCCCCC[C@@](C)(NC(=O)[C@H](Cc2ccccc2)NC(=O)[C@@H](NC(=O)[C@H](CC(C)C)NC(C)=O)[C@@H](C)O)C(=O)N[C@@H](C)C(=O)N[C@@H](Cc2ccc(O)cc2)C(=O)N[C@@H](Cc2c[nH]c3ccccc23)C(=O)N[C@@H](C)C(=O)N[C@@H](CCC(N)=O)C(=O)N[C@@H](CC(C)C)C(=O)N1)C(=O)N[C@@H](C)C(=O)NCCC` (single isomer, unassigned) [compound 423], the 50% inhibitory concentration (IC50) on MDM2 (read-out: IC50 (MDM2)) and at MDMX (read-out: IC50 (MDMX)) was 10 to 100 nM in each case. Besides, the figures for the Ki on MDM2 (read-out: Ki (MDM2)) and at MDMX (read-out: Ki (MDMX)) were below 10 nM and 10 to 100 nM, respectively.

Consider `CCCC[C@H](NC(=O)[C@H](C)NC(=O)[C@H](C)NC(=O)[C@]1(C)CCCC=CCCCCCC[C@@](C)(NC(=O)[C@H](Cc2ccccc2)NC(=O)[C@@H](NC(=O)[C@H](CC(C)C)NC(C)=O)[C@@H](C)O)C(=O)N[C@@H](C)C(=O)N[C@@H](Cc2ccc(O)cc2)C(=O)N[C@@H](Cc2c[nH]c3ccccc23)C(=O)N[C@@H](C)C(=O)N[C@@H](CCC(N)=O)C(=O)N[C@@H](CC(C)C)C(=O)N1)C(=O)N[C@@H](C)C(=O)NCCC(C)(C)C` (single isomer, unassigned) [compound 425], for which the IC50 on MDM2 (read-out: IC50 (MDM2)) and at MDMX (read-out: IC50 (MDMX)) was 10 to 100 nM in each case. The Ki on MDM2 (read-out: Ki (MDM2)) and on MDMX (read-out: Ki (MDMX)) was 10 to 100 nM in each case.

Turning to `CCCCCCNC(=O)[C@H](C)NC(=O)[C@H](CCCC)NC(=O)[C@H](C)NC(=O)[C@H](C)NC(=O)[C@]1(C)CCCC=CCCCCCC[C@@](C)(NC(=O)[C@H](Cc2ccccc2)NC(=O)[C@@H](NC(=O)[C@H](CC(C)C)NC(C)=O)[C@@H](C)O)C(=O)N[C@@H](C)C(=O)N[C@@H](Cc2ccc(O)cc2)C(=O)N[C@@H](Cc2c[nH]c3ccccc23)C(=O)N[C@@H](C)C(=O)N[C@@H](CCC(N)=O)C(=O)N[C@@H](CC(C)C)C(=O)N1` (single isomer, unassigned) [compound 427], the IC50 on MDM2 (read-out: IC50 (MDM2)) and at MDMX (read-out: IC50 (MDMX)) was 100 to 1000 nM throughout. Besides, the Ki at MDM2 (read-out: Ki (MDM2)) and on MDMX (read-out: Ki (MDMX)) was 10 to 100 nM in each case.

On to `CC(C)C[C@H](NC(=O)CN(C)C)C(=O)N[C@H](C(=O)N[C@@H](Cc1ccccc1)C(=O)N[C@]1(C)CCCCCCC=CCCC[C@@](C)(C(=O)N[C@@H](C)C(=O)N[C@@H](C)C(=O)N[C@@H](C)C(=O)N[C@@H](C)C(=O)N[C@@H](C)C(=O)N[C@H](C)C(N)=O)NC(=O)[C@H](CC(C)C)NC(=O)[C@H](CCC(N)=O)NC(=O)[C@H](C)NC(=O)[C@H](Cc2c[nH]c3ccccc23)NC(=O)[C@H](Cc2ccc(O)cc2)NC(=O)[C@H](CCC(=O)O)NC1=O)[C@@H](C)O` (single isomer, unassigned) [compound 439], for which the values for the IC50 at MDM2 (IC50 (MDM2)) and on MDMX (IC50 (MDMX)) were below 10 nM and 10 to 100 nM, respectively. Also, the Ki at MDM2 (Ki (MDM2)) and at MDMX (Ki (MDMX)) was below 10 nM each time.

Take `CC[C@H](C)[C@H](NC(=O)[C@H](C)NC(=O)[C@H](C)NC(=O)[C@]1(C)CCCC=CCCCCCC[C@@](C)(NC(=O)[C@H](Cc2ccccc2)NC(=O)[C@@H](NC(=O)[C@H](CC(C)C)NC(=O)CN(C)C)[C@@H](C)O)C(=O)N[C@@H](CCC(=O)O)C(=O)N[C@@H](Cc2ccc(C(=O)O)cc2)C(=O)N[C@@H](Cc2c[nH]c3ccccc23)C(=O)N[C@@H](C)C(=O)N[C@@H](CCC(N)=O)C(=O)N[C@@H](CC2CCC2)C(=O)N1)C(=O)N[C@H](C)C(N)=O` (single isomer, unassigned) [compound 441]: the IC50 at MDM2 (read-out: IC50 (MDM2)) and at MDMX (read-out: IC50 (MDMX)) was below 10 nM throughout. Besides, the inhibition constant (Ki) on MDM2 (read-out: Ki (MDM2)) and at MDMX (read-out: Ki (MDMX)) was below 10 nM in each case.

As to `CCCC[C@H](NC(=O)[C@H](C)NC(=O)[C@H](C)NC(=O)[C@]1(C)CCCC=CCCCCCC[C@@](C)(NC(=O)[C@H](Cc2ccccc2)NC(=O)[C@@H](NC(=O)[C@H](CC(C)C)NC(=O)CN(C)C)[C@@H](C)O)C(=O)N[C@@H](C)C(=O)N[C@@H](Cc2ccc(O)cc2)C(=O)N[C@@H](Cc2c[nH]c3ccccc23)C(=O)N[C@@H](C)C(=O)N[C@@H](CCC(N)=O)C(=O)N[C@@H](CC(C)C)C(=O)N1)C(=O)N[C@@H](C)C(N)=O` (single isomer, unassigned) [compound 443], the IC50 on MDM2 (read-out: IC50 (MDM2)) and at MDMX (read-out: IC50 (MDMX)) was 10 to 100 nM each time. Further, the Ki was below 10 nM on MDM2 (read-out: Ki (MDM2)) and 10 to 100 nM on MDMX (read-out: Ki (MDMX)).

In the case of `CC(=O)N[C@@H](CC(C)C)C(=O)N[C@H](C(=O)N[C@@H](Cc1ccccc1)C(=O)N[C@]1(C)CCCCCCC=CCCC[C@@](C)(C(=O)N[C@@H](C)C(=O)N[C@@H](C)C(=O)N[C@@H](C)C(=O)N[C@@H](C)C(=O)N[C@@H](C)C(=O)N[C@H](C)C(=O)O)NC(=O)[C@H](CC(C)C)NC(=O)[C@H](CCC(N)=O)NC(=O)[C@H](C)NC(=O)[C@H](Cc2c[nH]c3ccccc23)NC(=O)[C@H](Cc2ccc(O)cc2)NC(=O)[C@H](CCC(=O)O)NC1=O)[C@@H](C)O` (single isomer, unassigned) [compound 551], the results for the Ki on MDM2 (Ki (MDM2)) and at MDMX (Ki (MDMX)) were below 10 nM and 10 to 100 nM, respectively.

Take `CC(=O)N[C@@H](CC(C)C)C(=O)N[C@H](C(=O)N[C@@H](Cc1ccccc1)C(=O)N[C@]1(C)CCCCCCC=CCCC[C@@](C)(C(=O)N[C@@H](C)C(=O)N[C@@H](C)C(=O)N[C@@H](C)C(=O)N[C@@H](C)C(=O)N[C@@H](C)C(=O)N[C@H](C)C(N)=O)NC(=O)[C@H](CC(C)C)NC(=O)[C@H](C)NC(=O)[C@H](C)NC(=O)[C@H](Cc2c[nH]c3ccccc23)NC(=O)[C@H](Cc2ccc(O)cc2)NC(=O)[C@H](C)NC1=O)[C@@H](C)O` (single isomer, unassigned) [compound 708]: the Ki at MDM2 (read-out: Ki (MDM2)) and at MDMX (read-out: Ki (MDMX)) was 10 to 100 nM throughout.

As for `CC(=O)N[C@@H](CC(C)C)C(=O)N[C@H](C(=O)N[C@@H](Cc1ccccc1)C(=O)N[C@]1(C)CCCCCCC=CCCC[C@@](C)(C(=O)N[C@@H](CO)C(N)=O)NC(=O)[C@H](CC(C)C)NC(=O)[C@H](CCC(N)=O)NC(=O)[C@H](C)NC(=O)[C@H](Cc2c[nH]c3ccccc23)NC(=O)[C@H](C)NC(=O)[C@H](Cc2c[nH]cn2)NC1=O)[C@@H](C)O` (single isomer, unassigned) [compound 710], the Ki on MDM2 (read-out: Ki (MDM2)) and at MDMX (read-out: Ki (MDMX)) was 10 to 100 nM throughout.

Regarding `CC(=O)N[C@@H](CC(C)C)C(=O)N[C@H](C(=O)N[C@@H](Cc1ccccc1)C(=O)N[C@]1(C)CCCCCCC=CCCC[C@@](C)(C(=O)N[C@@H](CO)C(=O)N[C@@H](C)C(N)=O)NC(=O)[C@H](CC2CCC2)NC(=O)[C@H](CCC(N)=O)NC(=O)[C@H](C)NC(=O)[C@H](Cc2c[nH]c3ccccc23)NC(=O)[C@H](Cc2ccc(O)cc2)NC(=O)[C@H](CCC(=O)O)NC1=O)[C@@H](C)O` (single isomer, unassigned) [compound 711], the Ki at MDM2 (read-out: Ki (MDM2)) is 10 to 100 nM; at MDMX (read-out: Ki (MDMX)) it was 100 to 1000 nM.
